Experimental data: patent publication US8022056B2, “Compositions and methods for the treatment of cancer” (Tautatis, Inc, priority 2006, dated 2011)
Where “and” joins values, the source holds several entries; their conditions need not be identical. Equal entries are not always repeated.

Assays:
GSK3 = assay: Kinase inhibition under standard conditions, GSK3; assay type: biochemical
[1] = Pharmacokinetics in mouse plasma and brain after oral dosing; assay type: in vivo
Description: Standard curves were established for the compound 1 reextracted from serum samples and brain homogenates, using the related compound 2 as internal standard. 200 μl serum samples prepared from mouse or human blood, and homogenates of 0.2 g mouse brain tissue in 0.3 ml saturated NaCl solution, were spiked with a range of concentrations of compound 1 at 10 nM, 30 nM, 100 nM, 300 nM, 1 μM, 3 μM in a mix with 500 nM of compound 2 as internal standard in DMSO (final DMSO not exceeding 2%). Serum and homogenate samples were mixed with 100 μl conc. Ammonia, and 200 μl sat'd NaCl solution was added to the serum samples. […] were reextracted twice with 2 ml ethylacetate each by vigorous vortexing for 1 min. Combined organic extracts were evaporated in a SpeedVac, and residues were taken up in 300 μl of 40% water/60% methanol (0.1% formic acid). Samples were analyzed by reversed phase HPLC on a […] Zorbox 300SB-C8 2.1×150 mm column at 45° C. […]
Mice were dosed at 12.5 mg/kg in a vehicle of 50 mM (−)-lactic acid in 50% PEG400, and sacrificed by cardiac puncture after various time intervals. […] Reextraction was performed, and ratios of analyte 1 and internal standard 2 were determined as described above. The concentrations of compound 1 in the serum and brain samples was calculated from the standard curve.

T-47D xenograft = assay: Mouse xenograft model T-47D; assay type: in vivo; conditions: Breast, p53/PI3K; oral twice daily dosing
Description: (§1) The efficacy of the compound of the formula 1 was confirmed in mouse tumor xenograft models, employing the NMRI(nu/nu) strain of mice. For example, cells from the human tumor cell lines MDA-MB-231, U373, and HT29 were pre-incubated subcutaneously in several nude mice to select for the most robustly growing cell population. After having grown to a sufficient size after 2-3 weeks, a piece of about 2 mm^3 volume of the most suitable tumor was transplanted subcutaneously into the region of the thoracic mammary fat pads, an area ensuring a high degree of vascularization of the grafted tissue. […] During the course of the treatment, the weight of the animals and the size of the transplanted tumor was monitored three times a week. […] These doses are best determined separately for each individual mouse strain employed.
(§2) To establish a solid tumour 3×10^6 tumor cells suspended in 100 μl of serum free medium (RPMI) were inoculated subcutaneously into the region of the thoracic mammary fat pads of 5 Male NMRI(nu/nu) mice of 8-10 weeks of age. […] During the course of the treatment body weight changes and tumor growth were recorded three times a week. Growth curves were plotted together with standard deviations and the significance of differences was determined using an unpaired t-test in FIG. 11. […]

SK-MEL-5 xenograft = assay: Mouse xenograft model SK-MEL-5; assay type: in vivo; conditions: Melanoma, Raf/CDKN2A; oral twice daily dosing
Description: as §1, §2

HT29 xenograft = assay: Mouse xenograft model HT29; assay type: in vivo
Description: The efficacy of the compound of the formula 1 was confirmed in mouse tumor xenograft models, employing the NMRI(nu/nu) strain of mice. For example, cells from the human tumor cell lines MDA-MB-231, U373, and HT29 were pre-incubated subcutaneously in several nude mice to select for the most robustly growing cell population. After having grown to a sufficient size after 2-3 weeks, a piece of about 2 mm^3 volume of the most suitable tumor was transplanted subcutaneously into the region of the thoracic mammary fat pads, an area ensuring a high degree of vascularization of the grafted tissue. When tumors reached a diameter of about 3 mm mice were assigned to treatment groups with about equal average tumor sizes, and therapy was started. Application of the compound of the formula 1 was performed preferably by oral gavage twice daily for continuous exposure, with doses between 1 and 10 mg/kg of the compound of the formula 1 as a solid suspension in water, or in aqueous liquid formulations containing common adjuvants, like polyethylene glycols (PEG), preferentially in form of a salt with a physiologically applicable acid, including but not limited to hydrochloric acid, phosphoric acid, lactic acid, malonic acid, citric acid, etc. Other suitable adjuvants include but are not limited to polyvinyl pyrrolidone (Povidone) of varying average molecular weights. During the course of the treatment, the weight of the animals and the size of the transplanted tumor was monitored three times a week. For maximum efficacy, a daily treatment regimen was chosen at the maximally applicable dose, as defined by the absence of significant weight loss over the course of the treatment. These doses are best determined separately for each individual mouse strain employed.
To establish a solid tumour 3×10^6 tumor cells suspended in 100 μl of serum free medium (RPMI) were inoculated subcutaneously into the region of the thoracic mammary fat pads of 5 Male NMRI(nu/nu) mice of 8-10 weeks of age. After 3-4 weeks tumor bearing mice were killed by cervical dislocation and the tumor of one selected donor mouse was excised under sterile conditions. Vital tumor regions were cut into 2 mm^3 pieces, picked up by a trocar (13 ga), and transplanted subcutaneously into NMRI(nu/nu) of the same stock. The tumor grade of the transplanted tissue was checked by routine histopathology (HE staining). Tumor growth and body weight were registered weekly during tumor establishment. When subcutaneous tumors reached diameters of about 3 mm the animals were randomly assigned to a treatment and a vehicle control group, each consisting of 10-12 animals, and a therapeutic regimen was started comprising twice daily applications by oral gavage of 2.5 mg/kg of compound 1 in a vehicle of 50 mM (−)-lactic acid in 50% polyethylene glycol 400. During the course of the treatment body weight changes and tumor growth were recorded three times a week. Growth curves were plotted together with standard deviations and the significance of differences was determined using an unpaired t-test in FIG. 11. In untreated mice tumor areas had grown after 9 days by about 150%, while in the treated group average tumor areas had grown only by about 50% (P=0.012).

[2] = molecular target: T1, ABC-B1 (glycoprotein gp170) (Homo sapiens, UniProt P08183); assay: Competition with MDR-driven efflux of calcein-AM in Kb-V1 cells (FACS); assay type: cell-based
T1 construct: Kb-V1 cells expressing high levels of gp170; endogenous in cells; host or cells: Kb-V1 cells
From the text: FIG. 6 compares the recognition of compound 1 and of the compound 6 by two frequently involved multi-drug resistance proteins ABC-B1 (glycoprotein gp170) (A), and ABC-G2 (breast cancer resistance protein BCRP) (B). Measurements were based on competition with the MDR-driven efflux of calcein-AM in Kb-V1 cells expressing high levels of gp170, or competition with the efflux of mitoxandrone in MCF-7 cells by the respective compounds within their effective concentration range. Uptake of fluorescent reporter compounds by competition with 1 or 6 was assessed by FACS as described in Mueller et al., Cancer Chemother. Pharmacol. 59, 157-164 (2007).

OVCAR-3 xenograft = assay: Mouse xenograft model OVCAR-3; assay type: in vivo; conditions: Ovarian, p53; oral twice daily dosing
Description: as §1, §2

CDK1 = CDK1 (Homo sapiens, UniProt P06493); assay: Kinase inhibition under standard conditions, CDK1; assay type: biochemical
[3] = Colon, Raf/PI3K/p53/APC, 2.5 mg/kg p.o. twice daily, 30 days

Sequence of CDK1 (P06493 whole entry, species assumed): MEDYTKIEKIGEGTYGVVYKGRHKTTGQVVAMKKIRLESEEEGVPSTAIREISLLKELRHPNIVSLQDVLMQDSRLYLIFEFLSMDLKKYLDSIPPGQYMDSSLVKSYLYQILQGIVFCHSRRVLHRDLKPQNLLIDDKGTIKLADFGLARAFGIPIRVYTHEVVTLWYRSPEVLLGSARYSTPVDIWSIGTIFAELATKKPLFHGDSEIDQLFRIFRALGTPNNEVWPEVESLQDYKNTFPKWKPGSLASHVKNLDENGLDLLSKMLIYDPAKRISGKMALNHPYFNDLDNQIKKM
Sequence of CDK1 (P14635 whole entry partner, species assumed): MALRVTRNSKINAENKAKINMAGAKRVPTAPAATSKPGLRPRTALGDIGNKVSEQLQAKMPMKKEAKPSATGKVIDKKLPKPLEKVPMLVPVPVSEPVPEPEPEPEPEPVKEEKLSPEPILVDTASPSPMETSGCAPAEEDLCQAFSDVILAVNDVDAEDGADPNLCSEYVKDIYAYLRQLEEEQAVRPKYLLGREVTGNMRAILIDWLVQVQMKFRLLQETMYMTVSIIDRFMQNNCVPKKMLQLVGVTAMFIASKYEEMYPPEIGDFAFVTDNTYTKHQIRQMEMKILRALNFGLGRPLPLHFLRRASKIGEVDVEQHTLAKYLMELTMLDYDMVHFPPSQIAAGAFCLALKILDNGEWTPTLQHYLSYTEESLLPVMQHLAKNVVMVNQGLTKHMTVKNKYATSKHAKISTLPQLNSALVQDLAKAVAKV
T1 sequence (P08183 whole entry): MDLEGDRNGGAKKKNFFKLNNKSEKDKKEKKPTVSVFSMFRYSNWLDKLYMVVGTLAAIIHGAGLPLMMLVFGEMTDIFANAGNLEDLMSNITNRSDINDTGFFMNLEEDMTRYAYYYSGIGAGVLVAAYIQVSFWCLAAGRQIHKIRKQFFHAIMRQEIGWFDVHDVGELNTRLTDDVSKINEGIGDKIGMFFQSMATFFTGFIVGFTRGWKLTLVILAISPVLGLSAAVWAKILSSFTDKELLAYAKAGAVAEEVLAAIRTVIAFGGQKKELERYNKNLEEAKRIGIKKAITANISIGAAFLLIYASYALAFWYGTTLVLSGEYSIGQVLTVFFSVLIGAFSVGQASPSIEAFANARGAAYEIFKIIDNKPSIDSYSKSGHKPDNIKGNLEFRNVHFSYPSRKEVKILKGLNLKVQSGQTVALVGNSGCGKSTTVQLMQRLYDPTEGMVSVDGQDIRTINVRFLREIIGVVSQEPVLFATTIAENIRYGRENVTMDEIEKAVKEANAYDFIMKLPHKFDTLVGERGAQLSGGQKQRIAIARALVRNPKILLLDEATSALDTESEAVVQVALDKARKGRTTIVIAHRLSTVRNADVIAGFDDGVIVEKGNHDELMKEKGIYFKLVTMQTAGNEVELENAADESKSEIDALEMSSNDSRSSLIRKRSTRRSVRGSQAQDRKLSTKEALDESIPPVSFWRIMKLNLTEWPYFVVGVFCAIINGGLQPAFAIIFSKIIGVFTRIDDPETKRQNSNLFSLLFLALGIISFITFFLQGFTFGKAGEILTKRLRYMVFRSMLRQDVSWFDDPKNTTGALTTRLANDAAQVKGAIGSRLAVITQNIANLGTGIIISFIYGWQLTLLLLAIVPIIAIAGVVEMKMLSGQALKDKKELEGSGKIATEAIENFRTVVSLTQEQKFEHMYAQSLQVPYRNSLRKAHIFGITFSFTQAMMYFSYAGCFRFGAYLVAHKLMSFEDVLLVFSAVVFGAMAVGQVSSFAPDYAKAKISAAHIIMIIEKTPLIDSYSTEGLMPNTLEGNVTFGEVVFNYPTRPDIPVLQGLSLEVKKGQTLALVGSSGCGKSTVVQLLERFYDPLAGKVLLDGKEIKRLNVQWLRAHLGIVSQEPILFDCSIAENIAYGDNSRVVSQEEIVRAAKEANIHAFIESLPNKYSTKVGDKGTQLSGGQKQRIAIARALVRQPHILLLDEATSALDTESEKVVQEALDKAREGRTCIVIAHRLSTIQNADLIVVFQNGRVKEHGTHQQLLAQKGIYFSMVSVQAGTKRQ

SMILES: CNC(=O)[C@@]1(N)C[C@H]2O[C@]1(C)n1c3ccccc3c3c4c(c5c6ccccc6n2c5c31)C(=O)NC4 [Compound 1]
- IC50 (GSK3): 1230 nM
- maximal free plasma concentration sustained over prolonged periods ([1]; in vivo, practical forms of oral dosing): about 200 nM
- penetration of the CNS ([1]; mouse plasma and brain, oral dosing): good penetration of the CNS
- Mean % Inhibition (T-47D xenograft): 81%
- N tumors with no/neg. growth (T-47D xenograft): 4 of 10
- Mean % Inhibition (SK-MEL-5 xenograft): 122%
- N tumors with no/neg. growth (SK-MEL-5 xenograft): 7 of 10
- signs of organ toxicity in heart, lung, kidney, liver, duodenum, and colon (HT29 xenograft; 30 days of continuous treatment, all 11 animals): complete absence of any signs of organ toxicity
- effect on body weight (HT29 xenograft; 30 days, 2.5 mg/kg p.o. twice daily): absence of any significant effect on body weight
- irritation in the mucosal layers of duodenum and colon tissues (HT29 xenograft; 30 days, oral route): absence of any signs of irritation
- Mean % Inhibition (HT29 xenograft; [3]): 70%
- N tumors with no/neg. growth (HT29 xenograft; [3]): 2 out of 10 and 2 of 11
- growth of average tumor areas in treated group (HT29 xenograft; after 9 days, 2.5 mg/kg p.o. twice daily): about 50%
- separation of anti-proliferative potency range from uptake concentration for efflux transporter, versus compound 6 [2]: more clearly separated
- Mean % Inhibition (OVCAR-3 xenograft): 78%
- N tumors with no/neg. growth (OVCAR-3 xenograft): 4 of 11
- IC50 (CDK1): 43 nM
